Reference: ChEMBL document CHEMBL3745668, “Synthesis and biological evaluation of novel 5-hydroxylaminoisoxazole derivatives as lipoxygenase inhibitors and metabolism enhancing agents” (Bioorg Med Chem, 2016)
Calls of active or inactive are those of the source. No cut-off for these calls is given here.

Legend:
[1] = molecular target: T1, Seed linoleate 13S-lipoxygenase-1 (Glycine max, UniProt P08170); assay: Inhibition of soybean LOX1 assessed as reduction in linoleic acid oxidation measured every 10 s for 10 mins by spectrophotometry analysis
T1 sequence (P08170 whole entry): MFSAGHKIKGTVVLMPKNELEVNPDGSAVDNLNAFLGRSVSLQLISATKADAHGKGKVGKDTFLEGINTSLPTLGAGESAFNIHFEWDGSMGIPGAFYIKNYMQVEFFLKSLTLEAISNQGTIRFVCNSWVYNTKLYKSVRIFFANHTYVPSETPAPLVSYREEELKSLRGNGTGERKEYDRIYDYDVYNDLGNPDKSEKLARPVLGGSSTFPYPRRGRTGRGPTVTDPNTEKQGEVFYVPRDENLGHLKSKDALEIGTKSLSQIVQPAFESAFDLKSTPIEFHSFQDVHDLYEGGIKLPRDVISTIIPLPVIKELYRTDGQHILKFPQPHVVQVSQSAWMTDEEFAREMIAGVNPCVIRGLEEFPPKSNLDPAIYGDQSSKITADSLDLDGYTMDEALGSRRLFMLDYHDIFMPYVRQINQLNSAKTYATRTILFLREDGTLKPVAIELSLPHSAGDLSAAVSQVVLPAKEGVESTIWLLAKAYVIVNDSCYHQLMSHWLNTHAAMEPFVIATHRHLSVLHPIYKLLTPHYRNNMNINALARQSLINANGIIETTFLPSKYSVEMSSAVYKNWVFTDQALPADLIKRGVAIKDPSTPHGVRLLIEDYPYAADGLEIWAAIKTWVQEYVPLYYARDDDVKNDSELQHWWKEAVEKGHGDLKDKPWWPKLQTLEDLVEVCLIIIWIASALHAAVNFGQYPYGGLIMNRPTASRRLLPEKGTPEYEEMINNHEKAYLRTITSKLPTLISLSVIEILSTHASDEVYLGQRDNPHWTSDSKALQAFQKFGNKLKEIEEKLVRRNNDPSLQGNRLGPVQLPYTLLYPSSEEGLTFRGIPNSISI

[2] = Antioxidant activity assessed as DPPH radical scavenging activity after 30 mins by spectrophotometry analysis; format: physicochemical
Brain [3] = assay: Antioxidant activity in albino rat brain homogenate assessed as inhibition of Fe(II)-induced lipid peroxidation after 60 mins by TBARS assay; format: functional, tissue-based
Brain [4] = assay: Antioxidant activity in albino rat brain homogenate assessed as inhibition of Fe(III)-induced lipid peroxidation after 60 mins by TBARS assay; format: functional, tissue-based; conditions: 1 h
[5] = Cytotoxicity against albino rat primary cerebellar granule neurons assessed as reduction in cell viability at 30 uM after 24 hrs by MTT assay; conditions: primary cerebellar granule neuron
Rattus norvegicus [6] = organism: Rattus norvegicus; assay: Increase in oxygen consumption rate of mitochondrial coupled state respiration in albino rat liver mitochondria using succinate as substrate at 10 uM by XF96 extracellular flux analysis in presence of rotenone; format: functional
Rattus norvegicus [7] = organism: Rattus norvegicus; assay: Increase in FCCP-stimulated oxygen consumption rate of mitochondrial coupled state respiration in albino rat liver mitochondria at 10 uM by XF96 extracellular flux analysis; format: functional
Rattus norvegicus [8] = organism: Rattus norvegicus; assay: Increase in oxygen consumption rate of mitochondrial resting respiration in albino rat liver mitochondria at 10 uM by XF96 extracellular flux analysis in presence of oligomycin; format: functional
Rattus norvegicus [9] = organism: Rattus norvegicus; assay: Effect on mitochondrial membrane potential in albino rat liver mitochondria using succinate as substrate by safranine A staining based assay in presence of rotenone or glutamate/malate; format: functional
Rattus norvegicus [10] = organism: Rattus norvegicus; assay: Effect on calcium-induced depolarization of albino rat liver mitochondria using succinate as substrate by safranine A staining based assay in presence of rotenone or glutamate/malate; format: functional
[11] = Antioxidant activity assessed as DPPH radical scavenging activity after 20 mins; format: physicochemical
Brain [12] = assay: Antioxidant activity in Wstar rat brain homogenate assessed as inhibition of Fe(II)-induced TBARS formation incubated for 15 mins by spectrophotometry analysis; format: functional, tissue-based; conditions: 0.25 h
[13] = molecular target: T2, Seed linoleate 13S-lipoxygenase-1 (Glycine max) (UniProt P08170); assay: Inhibition of soybean LOX1 assessed as reduction in linoleic acid oxidation at 50 uM measured every 10 s for 10 mins by spectrophotometry analysis
T2 sequence (whole entry): T1 sequence (P08170 whole entry)

[14] = Cytotoxicity against albino rat primary cerebellar granule neurons assessed as reduction in cell viability at 30 uM after 24 hrs by MTT assay relative to control; conditions: primary cerebellar granule neuron
SH-SY5Y = assay: Cytotoxicity against human SH-SY5Y cells assessed as reduction in cell viability at 30 uM after 24 hrs by MTT assay relative to control; format: cell-based
[15] = Rattus norvegicus, Brain, 1 h, read-out: IC50

SMILES | IC50 [1] | EC50 [2] [µM] | IC50 (Brain [3]) | IC50 (Brain [4]) [µM] | Activity [5] | Activity (Rattus norvegicus [6]) | Activity (Rattus norvegicus [7]) | Activity (Rattus norvegicus [8]) | Activity (Rattus norvegicus [9]) | Activity (Rattus norvegicus [10]) | IC50 [11] [µM] | IC50 (Brain [12]) [µM] | IC50 ([1]; read-out: IC50) [µM] | inhibition [13] | IC50 (Brain [3]; [15]) [µM] | Activity [14] [%] | Activity (SH-SY5Y) [%]
O=C(OCCOC12CC3CC(CC(C3)C1)C2)c1cc(N(O)C2CCCO2)on1 (stereo not given) | Not Active | > 100 | Not Active | 35 | Non-toxic | Active | Active | inactive | inactive | inactive | – | – | – | – | – | – | –
C[C@H](c1cc2ccccc2s1)N(O)C(N)=O | – | 14 | – | – | – | – | – | – | – | – | 43 | > 50 | – | – | – | – | –
CC12CC3CC(C)(C1)CC(OC(=O)c1cc(N(O)C4CCCO4)on1)(C3)C2 (stereo not given) | – | 38 | – | 1.48 | Non-toxic | Active | Active | inactive | inactive | inactive | – | – | 1 | Active | 5.16 | – | –
CC(C)OC(=O)C12CC3CC(CC(OC(=O)c4cc(N(O)C5CCCO5)on4)(C3)C1)C2 (stereo not given) | – | > 100 | – | 1.58 | Non-toxic | Active | Active | inactive | inactive | inactive | – | – | 277 | – | 2.74 | – | –
O=C(OCCC12CC3CC(CC(C3)C1)C2)c1cc(N(O)C2CCCO2)on1 (stereo not given) | – | 21 | – | 5.25 | – | Active | Active | inactive | inactive | inactive | – | – | 0.4 | – | 3.15 | 77 | –
O=C(OCc1ccc(C23CC4CC(CC(C4)C2)C3)cc1)c1cc(N(O)C2CCCO2)on1 (stereo not given) | Not Active | > 100 | – | 5.45 | Non-toxic | Active | Active | inactive | inactive | inactive | – | – | – | – | 3.41 | – | –
O=C(OCC12CC3CC(CC(C3)C1)C2)c1cc(N(O)C2CCCO2)on1 (stereo not given) | – | 70 | – | 22 | Non-toxic | Active | Active | inactive | inactive | inactive | – | – | 16 | – | 6.58 | – | 22
O=C(OC12CC3CC(CC(C3)C1)C2)c1cc(N(O)C2CCCO2)on1 (stereo not given) | – | 16 | – | 1.37 | – | Active | Active | inactive | inactive | inactive | – | – | 25 | – | 0.33 | – | –
O=C(OC1C2CC3CC(C2)CC1C3)c1cc(N(O)C2CCCO2)on1 (stereo not given) | – | 71 | – | 1.21 | – | – | – | – | inactive | inactive | – | – | 4 | – | 10.5 | – | –
